Patent US10391150B2, “Treatments for migraine and related disorders” (The University of Chicago, priority 2011, dated 2019)

Tests used:
[1] = tested on: spreading depression (SD) in hippocampal slice cultures; experiment: Spreading depression (SD) threshold / susceptibility in hippocampal slice cultures; type: cell-based, rat
From the text: FIGS. 2A-2E. […] (FIG. 2A) Experiments begin with determination of the current needed to maximize standard CA3 area field potential responses. Half-maximal intensity is then used to elicit CA3 area evoked field potentials from dentate gyrus bipolar electrical stimulation. This documents the normalcy of evoked synaptic responses between preparations. If a slice's field excitatory post synaptic potentials are not at least 3 mV, slices are discarded. Next, field potential trains (i) are noted to verify that preparations are healthy enough to follow 10 Hz stimulation (e.g., amplitudes of vertical deviations in fast potential records are similar) and the current needed to trigger SD (ii) is registered (Pusic and Kraig, 2010).
(FIG. 8a) Exemplary CA3 area evoked field potential. Experiments begin with establishment of the current intensity needed to evoke maximal field potential responses; stimuli of half-maximal intensity were then used to elicit subsequent field potentials. Only those cultures with CA3 pyramidal neuron post-synaptic responses of at least 3 mV were used for experiments. (FIG. 8b) CA3 response to dentate gyrus bipolar stimulation (10 pulses at 10 Hz, 500 μA) was used to elicit a spreading depression (SD), as shown in (FIG. 8c). (FIG. 8c) The spreading depression (SD) shown here was induced by the stimulation/response (arrow) shown in (FIG. 8b). […] Comparisons between groups made via Student's t-test.
The inventors induced SD trans-synaptically in rat HSC using electrical stimuli (100 μs pulses @ 10 Hz for 1 s) ranging from 1 to 10,000 nC in order to determine SD threshold in sham and experimental groups (Pusic et al., 2011). Results were based on n≥3-6/group. […] This insulin dose approximates the pharmacological levels seen in humans treated with nasal insulin.
Slice cultures were prepared and maintained as previously described (Mitchell et al., 2010a,). After 18 days in vitro (DIV), slice cultures were transferred to serum-free media that included additional calcium and magnesium. Cultures were screened at 21 DIV to ensure no pyramidal neuron death was present. Standard electrophysiological recordings were performed by placing a slice culture insert in a PDMI recording chamber with controlled temperature and pH (FIG. 1). The recording chamber was aerated with 5% CO2-balance air at 36° C. and media flowing at 1.2 mL/min or was held static around the slice culture insert. A recording electrode was placed at the CA3 pyramidal cell layer and a stimulating electrode was placed at the surface of the dentate gyrus. Recordings were initiated prior to placing the stimulating electrode on the culture to ensure no spreading depression was triggered as a result.
Studies began with determination of the current needed to maximize standard CA3 area field potential responses. This documented the normalcy of evoked synaptic responses between preparations. If a slice's field EPSPs were not at least 3-4 mV, it was discarded.
Next, trans-synaptically evoked SD was determined. Here, the inventors stimulated slices via the dentate gyrus with 100 μs pulses delivered at 10 Hz for 1 sec every 1-2 minutes at increasing μA current intensities until SD occurred.
Slice cultures are prepared, maintained, and induced to fire SD as previously described using trans-synaptic excitation of CA3, where SD is initiated (FIG. 4) (Kunkler et al., 2005; Pusic et al., 2011).

[2] = tested on: SD in neocortex and hippocampus of anesthetized rat; experiment: SD threshold in vivo (0.5 M KCl injection) after nasal administration; details: control 1-8 nL
Method: Images show experimental setups for nasal administration and testing. (FIG. 7A) Nasal injection setup showing heat lamp and thermo-regulator that maintains temperature at 37° C. plus nose cone used to deliver isoflurane anesthesia. (FIG. 7B) Operator is shown administering nasal IGF-1 solution, which is performed in a fume hood to adequately vent isoflurane from nose cone. (FIG. 7C) Image illustrates standard electrophysiology setup. Anesthetized animal is placed into a standard electrophysiology holder and anesthesia maintained by a nose cone delivering 3% isoflurane in oxygen. Arterial oxygen saturation is monitored with a pulse-oximeter. Animals are warmed to 37.5° C. with a heating plate. SD is induced by progressively injecting larger volumes of 0.5 M KCl from an 8 μm diameter microelectrode. SD is registered with a second microelectrode used for DC recordings placed more caudally. After SD is evoked by a given injection pulse, the stimulating electrode is withdrawn and a volume re-injected under mineral oil. The diameter of the resultant KCl injection sphere is then measured off line using a compound microscope and the injection volume calculated. For example, in the above whole animal experiments it took 1-8 nL of 0.5 M KCl to evoke SD in control brain regions while after acute IGF-1 this amount rose to 67-109 nL. A day after IGF-1 treatment the volume needed to evoked SD was 34-48 nL. IFN-γ treatment required 338 nL of 0.5 M KCl a day after treatment and IL-11 required 67-200 nL.
Rats (FIGS. 6 and 7) are anesthetized with inhalational isoflurane and kept warm. While anesthetized, animals are placed in a supine position and 50 μL of sterile drug (i.e., IFN-γ, IGF-1, or IL-11) solution [or sterile saline vehicle (sham control)] is administered nasally by delivering 5 μL alternating between the left and right naris every 2 min over 20 minutes. Animals are given nasal drug treatments daily at the same time for 7 days before subsequent experiments. Doses for all 3 agents begin with the effective doses noted in our work using slice cultures (1×), then include others (0.1× and 10×). The inventors base this strategy on the fact that the effective culture dose for IGF-1 (40 ng/mL) closely approximates the dose used in vivo (143 μg/kg).
This approach was applied to measurement of SD threshold (FIG. 10) after treatment (FIG. 7) with nasally administered IGF-1 (150 μg), IL-11 (1 μg), IFN-γ (50,000 units), and insulin (20 μg). […] Resistance against SD was always greater in hippocampus compared to neocortex (n=4, controls; n=3, acutely after IGF-1; n=6, one day after IGF-1; n=6, one day after IL-11; n=6, one day after IFN-γ; and n=3, acutely after insulin).
Nasal administration followed by SD threshold evaluation in vivo. Vehicle or human recombinant IGF-1 (150 μg) is administered intranasally. SD threshold is established by injection of nanoliter volumes of 0.5 M KCl into neocortex or hippocampus (−2.0 mm from Bregma and 1.5 mm lateral from midline at either 750 μm or 2,800 μm into brain, respectively) using a thin-walled glass pipette and Picospritzer. Once a threshold is established, it is confirmed two more times, with an exemplary record from a vehicle-sham animal shown below. […] The diameter of the injected sphere is then measured using a compound microscope and used to calculate the injected volume, then moles of potassium. […]

[3] = a day after nasal treatment (IGF-1 150 μg; IL-11 1 μg; IFN-γ 50,000 units)

With Insulin-like growth factor 1 [IGF-1] the “increase of SD threshold compared to control” value (“increase of SD threshold” for short) ([1]; 3-day exposure to IGF-1) was 75 fold, the “increase of SD threshold” value ([1]; 7-day phasic exposure to IGF-1 (12 hours a day)) was 22 fold and the “increase of SD threshold” value ([1]; acute (15-30 min) exposure to IGF-1) was 24 fold. The “relative SD threshold levels” value ([1]; coincubation with ascorbate and IGF-1 versus IGF-1 alone) was 1.00±0.31, the “volume of 0.5 M KCl needed to evoke SD” value [2, 3] was 34 to 48 nL and the “volume of 0.5 M KCl needed to evoke SD” value ([2]; acutely after nasal treatment (IGF-1 150 μg; insulin 20 μg)) was 67 to 109 nL.

B1: Interferon-gamma (protein, listed as Homo sapiens)
chain: MKYTSYILAFQLCIVLGSLGCYCQDPYVKEAENLKKYFNAGHSDVADNGTLFLGILKNWKEESDRKIMQSQIVSFYFKLFKNFKDDQSIQKSVETIKEDMNVKFFNSNKKKRDDFEKLTNYSVTDLNVQRKAIHELIQVMAELSPAAKTGKRKRSQMLFRGRRASQ
With B1 the “susceptibility to SD” value ([1]; IFN-γ 500 U/mL, at 1 day) was “significantly increased susceptibility to SD” and the “volume of 0.5 M KCl needed to evoke SD” value [2, 3] was 338 nL.
